# Values of other authors, collected in PMC7211198, “Phase 1b study of a small molecule antagonist of human chemokine (C-C motif) receptor 2 (PF-04136309) in combination with nab-paclitaxel/gemcitabine in first-line treatment of metastatic pancreatic ductal adenocarcinoma” (Investigational New Drugs, 2019).
# Like-named read-outs stand apart in the source and are kept apart here.
# System: advanced pancreatic cancer
# Conditions: cited from earlier work
compound,measurement,setting,value
Nc1ccn([C@@H]2O[C@H](CO)[C@@H](O)C2(F)F)c(=O)n1 [gemcitabine],Observed rate of pneumonitis,gemcitabine combined with nab-paclitaxel,up to 4%
same,Observed rate of pneumonitis,patients treated with gemcitabine,approximately 1%
